These results are taken from ChEMBL document CHEMBL4028801, “A multifactorial approach to hepatobiliary transporter assessment enables improved therapeutic compound development” (Toxicol Sci, 2013).

Data set [1] in a line: Drug concentration at steady state in human at 1250 mg, po QD after 24 hrs. In kind it is ADME, organism-based. The note with it: in vivo, read-out: Css.
A short description of data set [2]: AUC in human at 1250 mg, po QD after 24 hrs. Also noted: time < 24 hr, dose 1250 mg, route oral. In kind it is ADME, organism-based. The note with it: in vivo.
The target in data set [3] is T1, ATP-binding cassette sub-family C member 4 (Homo sapiens, UniProt O15439).
T1 sequence (O15439 whole entry): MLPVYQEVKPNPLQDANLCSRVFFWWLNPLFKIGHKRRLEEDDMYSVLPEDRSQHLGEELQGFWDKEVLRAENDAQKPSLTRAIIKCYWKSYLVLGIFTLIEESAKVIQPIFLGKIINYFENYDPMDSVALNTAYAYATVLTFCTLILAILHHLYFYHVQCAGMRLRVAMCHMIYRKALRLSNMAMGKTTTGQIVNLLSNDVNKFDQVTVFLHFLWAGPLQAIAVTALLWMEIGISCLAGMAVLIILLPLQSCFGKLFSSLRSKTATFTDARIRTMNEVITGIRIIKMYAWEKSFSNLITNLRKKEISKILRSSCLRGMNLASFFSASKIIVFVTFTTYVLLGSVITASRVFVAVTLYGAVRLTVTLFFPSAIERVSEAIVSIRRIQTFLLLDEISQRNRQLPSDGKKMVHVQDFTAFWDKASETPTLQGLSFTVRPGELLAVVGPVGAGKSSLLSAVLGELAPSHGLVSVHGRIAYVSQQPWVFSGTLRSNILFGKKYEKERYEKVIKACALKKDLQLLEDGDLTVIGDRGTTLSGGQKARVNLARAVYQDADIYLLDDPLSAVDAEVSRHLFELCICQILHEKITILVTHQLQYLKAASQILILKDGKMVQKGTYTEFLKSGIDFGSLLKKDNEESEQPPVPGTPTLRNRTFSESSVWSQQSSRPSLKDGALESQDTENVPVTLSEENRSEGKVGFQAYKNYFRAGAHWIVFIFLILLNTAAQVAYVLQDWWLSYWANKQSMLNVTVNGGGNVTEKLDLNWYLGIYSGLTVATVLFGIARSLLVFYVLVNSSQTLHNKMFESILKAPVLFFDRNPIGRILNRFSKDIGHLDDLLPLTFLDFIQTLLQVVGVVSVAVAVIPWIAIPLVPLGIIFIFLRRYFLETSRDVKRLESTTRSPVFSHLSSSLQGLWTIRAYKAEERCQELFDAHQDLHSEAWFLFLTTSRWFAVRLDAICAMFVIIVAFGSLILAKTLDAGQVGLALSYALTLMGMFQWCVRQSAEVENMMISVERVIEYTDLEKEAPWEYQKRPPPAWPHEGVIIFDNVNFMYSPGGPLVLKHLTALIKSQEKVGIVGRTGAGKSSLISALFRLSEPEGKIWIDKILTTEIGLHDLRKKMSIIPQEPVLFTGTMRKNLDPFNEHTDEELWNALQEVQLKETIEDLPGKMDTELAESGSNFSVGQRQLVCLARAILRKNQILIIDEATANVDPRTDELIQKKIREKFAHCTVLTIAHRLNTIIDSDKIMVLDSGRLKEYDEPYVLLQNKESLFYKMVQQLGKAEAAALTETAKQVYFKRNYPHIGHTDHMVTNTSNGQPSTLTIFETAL
Briefly: Inhibition of human MRP4 overexpressed in Sf9 cell membrane vesicles assessed as uptake of [3H]-estradiol-17beta-D-glucuronide in presence of ATP and GSH measured after 20 mins by membrane vesicle transport assay. The format is ADME, cell-based.

Data set [4] is described as follows: Ratio of drug concentration at steady state in human at 1250 mg, po QD after 24 hrs to IC50 for human BSEP overexpressed in Sf9 insect cells. In kind it is ADME, organism-based. The note with it: in vivo.
Data set [5] deals with ATP-binding cassette sub-family C member 3 (Homo sapiens, UniProt O15438). The data set is described as follows: Inhibition of human MRP3 overexpressed in Sf9 insect cell membrane vesicles assessed as uptake of [3H]-estradiol-17beta-D-glucuronide in presence of ATP and GSH measured after 10 mins by membrane vesicle transport assay. The format is ADME, cell-based.
Data set [6] concerns the target ATP-binding cassette sub-family C member 2 (Homo sapiens, UniProt Q92887). The data set is described as follows: Inhibition of human MRP2 overexpressed in Sf9 cell membrane vesicles assessed as uptake of [3H]-estradiol-17beta-D-glucuronide in presence of ATP and GSH measured after 20 mins by membrane vesicle transport assay.
Data set [7] in a line: AUC in human at 200 to 600 mg, po QD after 24 hrs. The format is ADME, organism-based. The note with it: in vivo.
A short description of data set [8]: Drug concentration at steady state in human at 200 to 600 mg, po QD after 24 hrs. In kind it is ADME, organism-based. The note with it: in vivo, read-out: Css.
A further data set deals with Bile salt export pump (Homo sapiens, UniProt O95342). Briefly: Inhibition of human BSEP overexpressed in Sf9 cell membrane vesicles assessed as uptake of [3H]-taurocholate in presence of ATP measured after 15 to 20 mins by membrane vesicle transport assay. The format is ADME, cell-based.
Data set [9] can be described thus: Ratio of drug concentration at steady state in human at 200 to 600 mg, po QD after 24 hrs to IC50 for human MRP4 overexpressed in Sf9 insect cells. The format is ADME, organism-based. The note with it: in vivo.
The nature of data set [10]: Ratio of drug concentration at steady state in human at 200 to 600 mg, po QD after 24 hrs to IC50 for human BSEP overexpressed in Sf9 insect cells. In kind it is ADME, organism-based. The note with it: in vivo.
A short description of data set [11]: Ratio of drug concentration at steady state in human at 200 to 600 mg, po QD after 24 hrs to IC50 for human MRP3 overexpressed in Sf9 insect cells. The format is ADME, organism-based. The note with it: in vivo.
A short description of data set [12]: Ratio of drug concentration at steady state in human at 200 mg, po QD after 24 hrs to IC50 for human MRP4 overexpressed in Sf9 insect cells. The format is ADME, organism-based. The note with it: in vivo.
Data set [13] in a line: Ratio of drug concentration at steady state in human at 200 mg, po QD after 24 hrs to IC50 for human BSEP overexpressed in Sf9 insect cells. In kind it is ADME, organism-based. The note with it: in vivo.
A short description of data set [14]: Drug concentration at steady state in human at 200 mg, po QD after 24 hrs. In kind it is ADME, organism-based. The note with it: in vivo, read-out: Css.
Data set [15] is described as follows: AUC in human at 200 mg, po QD after 24 hrs. The format is ADME, organism-based. More on the design: time < 24 hr, dose 200 mg, route oral. The note with it: in vivo.
A short description of data set [16]: Drug concentration at steady state in human at 75 to 100 mg, po QID after 6 hrs. In kind it is ADME, organism-based. The note with it: in vivo, read-out: Css.
A short description of data set [17]: AUC in human at 75 to 100 mg, po QID after 6 hrs. The note with it: in vivo. The format is ADME, organism-based.
A short description of data set [18]: Ratio of drug concentration at steady state in human at 75 to 100 mg, po QID after 6 hrs to IC50 for human BSEP overexpressed in Sf9 insect cells. The format is ADME, organism-based. The note with it: in vivo.
Data set [19] in a line: Ratio of drug concentration at steady state in human at 75 to 100 mg, po QID after 6 hrs to IC50 for human MRP4 overexpressed in Sf9 insect cells. The note with it: in vivo. In kind it is ADME, organism-based.
Data set [20] is described as follows: AUC in human at 125 to 500 mg, po QID after 6 hrs. The format is ADME, organism-based. The note with it: in vivo.
Data set [21] in a line: Ratio of drug concentration at steady state in human at 125 to 500 mg, po QID after 6 hrs to IC50 for human BSEP overexpressed in Sf9 insect cells. The format is ADME, organism-based. The note with it: in vivo.
The nature of data set [22]: Drug concentration at steady state in human at 125 to 500 mg, po QID after 6 hrs. The note with it: in vivo, read-out: Css. The format is ADME, organism-based.

Molecules are shown by their SMILES.

Sequence of ATP-binding cassette sub-family C member 3 (O15438 whole entry): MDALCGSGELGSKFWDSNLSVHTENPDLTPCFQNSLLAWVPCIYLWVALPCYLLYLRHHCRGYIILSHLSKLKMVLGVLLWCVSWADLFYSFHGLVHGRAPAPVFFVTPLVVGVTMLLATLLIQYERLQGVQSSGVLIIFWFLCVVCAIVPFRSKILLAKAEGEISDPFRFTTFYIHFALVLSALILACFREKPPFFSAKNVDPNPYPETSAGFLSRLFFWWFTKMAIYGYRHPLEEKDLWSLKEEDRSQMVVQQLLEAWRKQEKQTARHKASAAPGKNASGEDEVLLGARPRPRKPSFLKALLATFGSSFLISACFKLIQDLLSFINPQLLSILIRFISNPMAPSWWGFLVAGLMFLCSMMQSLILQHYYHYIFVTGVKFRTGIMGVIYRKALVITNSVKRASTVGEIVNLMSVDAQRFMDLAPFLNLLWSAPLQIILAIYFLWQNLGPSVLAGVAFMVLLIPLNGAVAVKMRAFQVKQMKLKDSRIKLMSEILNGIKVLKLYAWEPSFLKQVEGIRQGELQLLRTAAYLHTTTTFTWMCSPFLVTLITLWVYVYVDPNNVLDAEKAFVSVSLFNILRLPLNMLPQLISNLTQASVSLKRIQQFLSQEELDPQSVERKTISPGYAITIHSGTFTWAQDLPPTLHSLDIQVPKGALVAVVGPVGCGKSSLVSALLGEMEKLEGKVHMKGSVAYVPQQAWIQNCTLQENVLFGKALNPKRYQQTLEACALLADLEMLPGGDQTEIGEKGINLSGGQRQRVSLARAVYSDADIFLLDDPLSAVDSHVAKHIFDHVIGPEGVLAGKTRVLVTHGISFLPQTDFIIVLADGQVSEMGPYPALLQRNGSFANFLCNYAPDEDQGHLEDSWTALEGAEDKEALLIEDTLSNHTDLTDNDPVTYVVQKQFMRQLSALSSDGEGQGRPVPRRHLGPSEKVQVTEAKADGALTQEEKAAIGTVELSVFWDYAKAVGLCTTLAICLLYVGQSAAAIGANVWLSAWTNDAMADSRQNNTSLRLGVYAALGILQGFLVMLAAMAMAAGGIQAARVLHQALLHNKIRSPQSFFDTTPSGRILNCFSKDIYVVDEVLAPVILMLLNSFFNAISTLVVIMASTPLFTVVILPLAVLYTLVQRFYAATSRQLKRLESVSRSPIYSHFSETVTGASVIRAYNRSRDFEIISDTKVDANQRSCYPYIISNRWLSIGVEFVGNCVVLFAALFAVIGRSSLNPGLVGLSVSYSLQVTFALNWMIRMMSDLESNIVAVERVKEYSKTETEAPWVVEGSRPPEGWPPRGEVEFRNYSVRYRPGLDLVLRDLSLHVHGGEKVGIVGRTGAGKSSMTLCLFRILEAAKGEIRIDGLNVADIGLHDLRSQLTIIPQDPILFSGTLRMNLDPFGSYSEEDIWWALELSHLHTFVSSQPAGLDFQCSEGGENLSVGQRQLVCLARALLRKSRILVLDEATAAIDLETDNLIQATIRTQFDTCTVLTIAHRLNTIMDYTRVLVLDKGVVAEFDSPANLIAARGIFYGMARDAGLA
Sequence of ATP-binding cassette sub-family C member 2 (Q92887 whole entry): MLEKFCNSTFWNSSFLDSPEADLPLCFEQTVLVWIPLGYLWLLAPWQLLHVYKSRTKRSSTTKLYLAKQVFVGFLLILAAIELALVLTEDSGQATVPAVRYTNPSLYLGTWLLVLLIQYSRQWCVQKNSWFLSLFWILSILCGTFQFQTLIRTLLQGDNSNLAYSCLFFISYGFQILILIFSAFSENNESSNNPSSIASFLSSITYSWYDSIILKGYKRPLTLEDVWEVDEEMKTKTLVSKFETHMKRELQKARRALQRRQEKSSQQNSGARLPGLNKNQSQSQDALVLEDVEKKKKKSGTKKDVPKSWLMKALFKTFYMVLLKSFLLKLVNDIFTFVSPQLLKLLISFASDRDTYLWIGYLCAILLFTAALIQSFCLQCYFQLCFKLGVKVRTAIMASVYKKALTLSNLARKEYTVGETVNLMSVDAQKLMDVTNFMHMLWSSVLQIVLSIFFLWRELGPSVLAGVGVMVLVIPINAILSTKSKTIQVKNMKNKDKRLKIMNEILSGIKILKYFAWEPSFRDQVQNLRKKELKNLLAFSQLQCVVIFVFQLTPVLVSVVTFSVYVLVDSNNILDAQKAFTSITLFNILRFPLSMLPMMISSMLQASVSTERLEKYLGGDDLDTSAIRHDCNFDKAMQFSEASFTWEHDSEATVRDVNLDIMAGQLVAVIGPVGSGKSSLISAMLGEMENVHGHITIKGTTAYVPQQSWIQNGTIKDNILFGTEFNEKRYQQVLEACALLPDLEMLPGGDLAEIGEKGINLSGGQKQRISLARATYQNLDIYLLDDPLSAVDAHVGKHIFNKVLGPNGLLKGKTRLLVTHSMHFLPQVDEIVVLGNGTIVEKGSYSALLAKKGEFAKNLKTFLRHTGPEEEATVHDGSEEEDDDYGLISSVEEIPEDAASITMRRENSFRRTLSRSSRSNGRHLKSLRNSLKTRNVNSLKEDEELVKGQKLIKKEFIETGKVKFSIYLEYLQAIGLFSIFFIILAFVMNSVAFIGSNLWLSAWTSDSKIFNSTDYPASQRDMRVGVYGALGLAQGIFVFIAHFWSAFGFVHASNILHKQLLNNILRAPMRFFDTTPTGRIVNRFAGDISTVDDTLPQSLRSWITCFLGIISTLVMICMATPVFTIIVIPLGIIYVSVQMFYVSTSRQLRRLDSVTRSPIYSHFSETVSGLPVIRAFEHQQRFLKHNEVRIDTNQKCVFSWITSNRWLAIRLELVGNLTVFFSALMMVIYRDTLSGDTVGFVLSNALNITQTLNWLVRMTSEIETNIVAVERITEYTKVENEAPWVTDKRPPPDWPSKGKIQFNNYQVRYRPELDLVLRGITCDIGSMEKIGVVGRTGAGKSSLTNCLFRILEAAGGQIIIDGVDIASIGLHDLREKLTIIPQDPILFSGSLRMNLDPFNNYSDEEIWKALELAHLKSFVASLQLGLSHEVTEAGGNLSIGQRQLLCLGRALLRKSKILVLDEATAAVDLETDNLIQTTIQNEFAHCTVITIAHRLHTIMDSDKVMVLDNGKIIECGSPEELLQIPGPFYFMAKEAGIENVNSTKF
Sequence of Bile salt export pump (O95342 whole entry): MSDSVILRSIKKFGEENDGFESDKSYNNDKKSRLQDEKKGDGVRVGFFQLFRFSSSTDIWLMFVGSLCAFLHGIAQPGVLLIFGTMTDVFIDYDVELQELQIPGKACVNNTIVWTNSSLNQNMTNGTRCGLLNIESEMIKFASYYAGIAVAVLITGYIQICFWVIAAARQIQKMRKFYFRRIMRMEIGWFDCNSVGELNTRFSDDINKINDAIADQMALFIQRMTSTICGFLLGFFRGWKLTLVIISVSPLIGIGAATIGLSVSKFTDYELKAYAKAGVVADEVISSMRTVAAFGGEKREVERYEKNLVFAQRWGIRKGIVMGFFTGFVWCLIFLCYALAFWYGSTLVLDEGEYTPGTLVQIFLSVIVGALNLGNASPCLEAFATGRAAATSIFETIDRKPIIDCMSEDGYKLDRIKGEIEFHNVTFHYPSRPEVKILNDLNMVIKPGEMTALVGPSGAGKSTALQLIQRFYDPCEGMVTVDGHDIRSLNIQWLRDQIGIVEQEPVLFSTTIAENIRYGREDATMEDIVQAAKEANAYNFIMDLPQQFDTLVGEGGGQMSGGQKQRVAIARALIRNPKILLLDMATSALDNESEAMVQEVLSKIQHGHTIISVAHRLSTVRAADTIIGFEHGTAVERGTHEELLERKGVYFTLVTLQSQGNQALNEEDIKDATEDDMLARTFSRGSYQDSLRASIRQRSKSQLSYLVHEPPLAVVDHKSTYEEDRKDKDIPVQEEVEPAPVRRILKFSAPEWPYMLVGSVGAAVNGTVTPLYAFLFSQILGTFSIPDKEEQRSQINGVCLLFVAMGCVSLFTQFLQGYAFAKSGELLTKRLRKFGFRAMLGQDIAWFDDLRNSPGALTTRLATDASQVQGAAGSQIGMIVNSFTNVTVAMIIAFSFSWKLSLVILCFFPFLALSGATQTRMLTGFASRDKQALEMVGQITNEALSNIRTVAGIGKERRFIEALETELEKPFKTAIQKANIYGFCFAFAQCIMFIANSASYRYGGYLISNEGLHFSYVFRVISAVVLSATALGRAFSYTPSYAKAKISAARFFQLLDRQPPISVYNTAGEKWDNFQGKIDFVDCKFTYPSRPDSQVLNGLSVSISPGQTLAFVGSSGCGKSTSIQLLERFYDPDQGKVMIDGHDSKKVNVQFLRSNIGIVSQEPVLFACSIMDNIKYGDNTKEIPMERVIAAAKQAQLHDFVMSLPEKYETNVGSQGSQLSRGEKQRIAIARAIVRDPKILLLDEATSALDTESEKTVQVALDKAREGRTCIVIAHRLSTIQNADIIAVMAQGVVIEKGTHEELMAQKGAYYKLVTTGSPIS

For the compound `CS(=O)(=O)CCNCc1ccc(-c2ccc3ncnc(Nc4ccc(OCc5cccc(F)c5)c(Cl)c4)c3c2)o1.Cc1ccc(S(=O)(=O)O)cc1`, in data set [1], the concentration at 24 h turned out to be 2600 nM. In addition, the AUC (in general, the area under the concentration-time curve, a measure of exposure) at 24 h in data set [2] was found to be 62.3 µM·h. Also, the IC50 in data set [3], in [5] and in data set [6] was > 133 µM each time. In addition, the Ratio in data set [4] worked out at 0.4.

In turn, `Cc1c(C)c2c(c(C)c1O)CCC(C)(COc1ccc(CC3SC(=O)NC3=O)cc1)O2` (stereo unspecified) [TROGLITAZONE] yielded an AUC at 24 h in data set [7] of 22.5 µM·h. Further, the IC50 (usually the concentration that inhibits the measured activity by half) in [3] came out at 61 µM; at Bile salt export pump, 3 µM; in data set [5], 31 µM. In data set [8], the concentration at 24 h came to 939 nM. In addition, the Ratio was 0.015 in data set [9], 0.313 in [10] and 0.03 in [11].

In the case of `CC(=O)N1CCN(c2ccc(OCC3COC(Cn4ccnc4)(c4ccc(Cl)cc4Cl)O3)cc2)CC1` (stereo unspecified) [KETOCONAZOLE], the IC50 is 69 µM in data set [3], > 133 µM in data set [5] and > 133 µM in data set [6]. Further, the figures for the Ratio in data set [12] and in data set [13] were 0.019 and 0.381, respectively. In [14], the concentration at 24 h amounted to 1300 nM. Moreover, in data set [15], the AUC at 24 h amounted to 31.1 µM·h.

Consider `OCCN(CCO)c1nc(N2CCCCC2)c2nc(N(CCO)CCO)nc(N3CCCCC3)c2n1` [DIPYRIDAMOLE], for which the IC50 in data set [3] was 8.3 µM; on Bile salt export pump, 4 µM; in data set [5], > 133 µM; in data set [6] it was > 133 µM. The concentration at 6 h in [16] was found to be 1140 nM. In addition, the AUC at 6 h in data set [17] is 6.82 µM·h. Besides, the Ratio in data set [18] is reported as 0.303; in data set [19], 0.137.

The compound `Cc1onc(-c2c(Cl)cccc2Cl)c1C(=O)N[C@@H]1C(=O)N2[C@@H]1SC(C)(C)[C@@H]2C(=O)O` [DICLOXACILLIN] returned an exposure (AUC) at 6 h in data set [20] of 168 µM·h. For the same compound, the IC50 is > 133 µM in data set [3], 56.4 µM at Bile salt export pump, > 133 µM in data set [5] and > 133 µM in data set [6]. Besides, in data set [21], the Ratio is listed as 0.498. For the same compound, the concentration at 6 h in data set [22] was determined as 28100 nM.
